Results: US8211465B2, “Immediate release and sustained release ibuprofen dosing regimen” (McNeil-PPC, Inc., priority 2007, dated 2012)

System: moderate to severe post-operative dental pain
Assay: PK/PD dental pain study, 12 hour observation period
Method: A double-blind, randomized, parallel, placebo-controlled, single center, PK/PD dental pain study was conducted over a 12 hour observation period to evaluate the pharmacokinetic, pharmacodynamic, efficacy and safety profiles of certain ibuprofen dosing regimens. Specifically, a single dose of 600 mg ibuprofen extended release caplets was compared with equivalent total doses of ibuprofen immediate release 200 mg caplets administered in three different dosing regimens as well as placebo in the treatment of moderate to severe post-operative dental pain. […] One sub-group of patients had both pharmacokinetic and pharmacodynamic evaluation (PK group). The other sub-group of patients had only the analgesic efficacy evaluations (non-PK group). Patients from both subgroups were assigned at random to one of the five following treatments:
A stopwatch technique was used to measure the onset of meaningful pain relief.

## CC(C)Cc1ccc(C(C)C(=O)O)cc1 (stereo not shown) [ibuprofen, 2-(4-isobutylphenyl)-propionic acid]
400/200/0 regimen: immediate release 400 mg at 0 hour, 200 mg at 4 hours
  pain relief during the first four hours: superior pain relief over the other treatments
400/200/0 regimen: immediate release 400 mg at 0 hour, 200 mg at 4 hours, dental pain patients
  pain relief over the entire 12-hour study period: excellent pain relief
400/200/0 regimen, no further ibuprofen after the first four hours
  pain relief scores during the 4 to 12 hour interval: highest pain relief scores
600/0/0 immediate release treatment: 600 mg single dose at 0 hour
  pain relief during the first four hours: superior pain relief over the other treatments
